From patent US9388124B2, “Ingenol-3-acylates I” (LEO LABORATORIES LIMITED, priority 2010, dated 2016)
Where two headings read alike, the source gives them in different places.

Experiments:
Assay type in all cases: cell-based
HeLa cells = test: Necrosis assay; details: Homo sapiens, 0.5 h, read-out: HeLa Necrosis EC50 range
Procedure: HeLa cells (ATCC CCL-002) were grown in minimal essential medium (Invitrogen catalog no. 42360) containing 10% fetal bovine serum, 100 IU/ml penicillin and 100 μg/ml streptomycin. 4,000-6,000 cells were seeded into 96-well black ViewPlates-plates, clear bottom, (Perkin Elmer) in 100 μl medium and incubated overnight. Compounds were dissolved and pre-diluted in DMSO in 96-well polypropylene plates (Greiner) in a concentration range of 15 μM to 600 μM. At the time of the experiment cell plates were placed on heating blocks at 37° C., medium was removed and 40 μl fresh, pre-warmed medium was added per well. Cells were incubated for 15 min before addition of compounds. In parallel, 3 μl of compounds were diluted with 197 μl growth medium on a Tecan freedom-EVO pipetting station using 250 μl/s pipetting speed, in order to ensure effective mixing of the highly concentrated compound solutions with the aqueous phase. These pre-dilution plates were then equilibrated on heating blocks at 37° C. for 10 min. 80 μl pre-diluted compound were transferred manually to the corresponding wells containing HeLa cells yielding compound concentrations of 10 μM to 400 μM. Control conditions were 1% DMSO in growth medium (100% viability) and 400 μM ingenol mebutate in growth medium (0% viability). Plates were incubated on the heating blocks at 37° C. for 30 min. At the end of the incubation 10 μl PrestoBlue reagent (Invitrogen) were added to each well, plates were sealed with black seal, followed by incubation at 37° C. for 10 min with gentle shaking (150 rpm). Subsequently, plates were placed at room temperature for 20-30 min. Plates were read immediately after on an Envision Fluorescence reader (Perkin Elmer) with excitation at 535 nm and emission at 630 nm. Test compound titration curves were fitted to a four-parameter sigmoidal curve after normalizing the effect of the test compound to the effect of the positive control (4 10^−4 M PEP0005/ingenol mebutate). AbsEC50 denotes the concentration of test compound producing 50% effect.

[1] = tested on: PMN's (polymorphonuclear leukocytes); test: Neutrophil oxidative burst assay; details: Leukocyte, 40 min, read-out: Neutrophil oxidative burst Rel EC50 range
Procedure: Neutrophil Oxidative Burst Assay:
PMN's (polymorphonuclear leukocytes) were isolated and purified from fresh buffy coats by sequential sedimentation, density centrifugation and lysis of contaminating erythrocytes. Buffy coats were incubated with 2% methocel for 30-45 min to differentially sediment red blood cells. The leukocyte-rich supernatant was transferred to lymphoprep tubes to remove mononuclear cells by density centrifugation (400×g, 30 min). The pellet was resuspended and any remaining erythrocytes lysed using 0.2% NaCl for 30 sec before restoring isotonicity by the addition of 1.2% NaCl. This step was repeated until the cell pellet appears relatively free of red blood cells. Cells were resuspended in DPBS (Dulbecco's Phosphate Buffered Saline) (w.o. Ca^2+, Mg^2+) and the concentration adjusted to 1.4×10^6 cells/ml in HBSS (Hanks Balanced Salt solution) (w Ca^2+, Mg^2+) containing 0.1% BSA (Bovine Serum Albumin) and 5 mM glucose just prior to assay initiation. Titrated reference and test compounds were pre-mixed with HE (Hydroethidine) (10 μM final assay concentration) before addition to 96-well plates containing 2.5×10^5 cells. Following 40 min incubation at RT, changes in the respiratory burst was estimated by measuring fluorescence at 579 nm (excitation: 485 nm) using an Envision plate reader.
Test compound titration curves were fitted to a four-parameter sigmoidal curve after normalizing the effect of the test compound to the effect of the positive control (5×10^−7 M PEP0005). Rel EC50 denotes the concentration of test compound producing an effect that is midway between the fitted top and bottom. Abs EC50 is the concentration of test compound that provokes a response corresponding to 50% of the maximal effect associated with the positive control (5×10^−7 M PEP0005).

[2] = tested on: Primary human epidermal keratinocytes, HeKa; test: HeKa cytokine release (IL-8) assay
Procedure: HeKa Cytokine Release (IL-8) Assay:
Primary human epidermal keratinocytes, HeKa, were seeded (10.000 cells/well) in 96-well plates the day before the assay. Test compounds were diluted in DMSO (dimethyl sulfoxide) and further diluted in assay medium and pipetted into wells of 96 well-plates containing HeKa cells. The plates were incubated for 6 h at 37° C. in humidified air with 5% CO2. Plates were centrifuged briefly to spin down cells at 4° C., the supernatant was removed and analysed by Meso Scale Discovery (MSD) 4-spot cytokine assay (Pro-inflammatory II Ultra Sensitive kit, MSD, MD, USA). The MSD assay employs a sandwich immunoassay format where capture antibodies are coated in a patterned array on the bottom of the wells of a 4-Spot-Multi-MSD plate. Standard samples were incubated in the MULTI-SPOT plates as well, and the cytokine (IL-8) binds to its corresponding capture antibody spot. The cytokine level was quantitated on a SECTOR™ Imager using a cytokine-specific Detection Antibody labelled with MSD SULFO-TAG™ reagent.
Test compound titration curves were fitted to a four-parameter sigmoidal curve after normalizing the effect of the test compound to the effect of the positive control (1.5×10^−7 M PEP0005). Rel EC50 denotes the concentration of test compound producing an effect that is midway between the fitted top and bottom.

[3] = HEKa, 6 h, read-out: HeKa cytokine release (IL-8) Rel EC50 range
[4] = HeLa cells, 30 min at 37° C., PrestoBlue, AbsEC50, normalized to 4 10^−4 M PEP0005/ingenol mebutate
[5] = PMNs, 40 min at RT, hydroethidine fluorescence, normalized to 5×10^−7 M PEP0005
[6] = HeKa cells, 6 h at 37° C., MSD IL-8, normalized to 1.5×10^−7 M PEP0005, read-out: HeKa cytokine release (IL-8) Rel EC50 range

Structure (SMILES): C=C(C)C(=O)O[C@H]1C(C)=C[C@]23C(=O)[C@@H](C=C(CO)[C@@H](O)[C@]12O)[C@H]1[C@@H](C[C@H]3C)C1(C)C [Compound 101, Ingenol 3-(2-methyl-acrylate)]
- EC50 (HeLa cells; HeLa): 150000 to 350000 nM
- EC50 [1]: < 20 nM
- EC50 [2, 3]: > 100 nM

Structure (SMILES): CC(C)=CC(=O)O[C@H]1C(C)=C[C@]23C(=O)[C@@H](C=C(CO)[C@@H](O)[C@]12O)[C@H]1[C@@H](C[C@H]3C)C1(C)C [Compound 102, Ingenol 3-(3-methyl-butenoate)]
- EC50 (HeLa cells; HeLa): 150000 to 350000 nM
- EC50 [1]: < 20 nM
- EC50 [2, 3]: 20 to 100 nM

Structure (SMILES): CC1=C[C@]23C(=O)[C@@H](C=C(CO)[C@@H](O)[C@]2(O)[C@H]1OC(=O)C(C)=C(C)C)[C@H]1[C@@H](C[C@H]3C)C1(C)C [Compound 103, Ingenol 3-(2,3-dimethyl-butenoate)]
- EC50 (HeLa cells; HeLa): 150000 to 350000 nM
- EC50 [1]: < 20 nM
- EC50 [2, 3]: < 20 nM

Structure (SMILES): C=C(CC)C(=O)O[C@H]1C(C)=C[C@]23C(=O)[C@@H](C=C(CO)[C@@H](O)[C@]12O)[C@H]1[C@@H](C[C@H]3C)C1(C)C [Compound 104, Ingenol 3-(2-methylene-butyrate)]
- EC50 (HeLa cells; HeLa): 150000 to 350000 nM
- EC50 [1]: < 20 nM
- EC50 [2, 3]: 20 to 100 nM

Structure (SMILES): CC1=C[C@]23C(=O)[C@@H](C=C(CO)[C@@H](O)[C@]2(O)[C@H]1OC(=O)C(C)C)[C@H]1[C@@H](C[C@H]3C)C1(C)C [Compound 105, Ingenol 3-(2-methyl-propanoate)]
- EC50 [1]: < 20 nM
- EC50 [2, 3]: 20 to 100 nM

Structure (SMILES): CC1=C[C@]23C(=O)[C@@H](C=C(CO)[C@@H](O)[C@]2(O)[C@H]1OC(=O)CC(C)C)[C@H]1[C@@H](C[C@H]3C)C1(C)C [Compound 106, Ingenol 3-(3-methyl-butanoate)]
- EC50 [1]: < 20 nM
- EC50 [2, 3]: 20 to 100 nM

Structure (SMILES): CCC(C)C(=O)O[C@H]1C(C)=C[C@]23C(=O)[C@@H](C=C(CO)[C@@H](O)[C@]12O)[C@H]1[C@@H](C[C@H]3C)C1(C)C (stereo partly shown) [Compound 107a and Compound 107b, Ingenol 3-(RS-2-methyl-butanoate)]
- EC50 [1]: < 20 nM
- EC50 [2, 3]: 20 to 100 nM

Structure (SMILES): CC1=C[C@]23C(=O)[C@@H](C=C(CO)[C@@H](O)[C@]2(O)[C@H]1OC(=O)CC(C)(C)C)[C@H]1[C@@H](C[C@H]3C)C1(C)C [Compound 108, Ingenol 3-(3,3-dimethyl-butanoate)]
- EC50 (HeLa cells; HeLa): 150000 to 350000 nM
- EC50 [1]: < 20 nM
- EC50 [2, 3]: 20 to 100 nM

Structure (SMILES): CCC(CC)C(=O)O[C@H]1C(C)=C[C@]23C(=O)[C@@H](C=C(CO)[C@@H](O)[C@]12O)[C@H]1[C@@H](C[C@H]3C)C1(C)C [Compound 109, Ingenol 3-(2-ethyl-butanoate)]
- EC50 (HeLa cells; HeLa): 150000 to 350000 nM
- EC50 [1]: < 20 nM
- EC50 [2, 3]: < 20 nM

Structure (SMILES): CC[C@@H](C)C(=O)O[C@H]1C(C)=C[C@]23C(=O)[C@@H](C=C(CO)[C@@H](O)[C@]12O)[C@H]1[C@@H](C[C@H]3C)C1(C)C [Compound 110, Ingenol 3-(2R-methyl-butanoate)]
- EC50 [1]: < 20 nM
- EC50 [2, 3]: 20 to 100 nM

Structure (SMILES): C/C=C(\C)C(=O)O[C@H]1C(C)=C[C@]23C(=O)[C@@H](C=C(CO)[C@@H](O)[C@]12O)[C@H]1[C@@H](C[C@H]3C)C1(C)C [Compound 111, Ingenol 3-tiglate]
- EC50 (HeLa cells; [4]): < 350000 nM
- EC50 [1, 5]: < 20 nM
- EC50 [2, 6]: 20 to 100 nM

Structure (SMILES): CC1=C[C@]23C(=O)[C@@H](C=C(CO)[C@@H](O)[C@]2(O)[C@H]1OC(=O)Cc1ccccc1)[C@H]1[C@@H](C[C@H]3C)C1(C)C [Compound 112, Ingenol 3-(phenyl-acetate)]
- EC50 (HeLa cells; [4]): 150000 to 350000 nM
- EC50 [1, 5]: < 20 nM
- EC50 [2, 6]: > 100 nM

Structure (SMILES): COC(=O)/C=C/C(=O)O[C@H]1C(C)=C[C@]23C(=O)[C@@H](C=C(CO)[C@@H](O)[C@]12O)[C@H]1[C@@H](C[C@H]3C)C1(C)C [Compound 113, Ingenol 3-(2Z-(methoxycarbonyl))-acrylate]
- EC50 [1]: > 100 nM

Structure (SMILES): CC1=C[C@]23C(=O)[C@@H](C=C(CO)[C@@H](O)[C@]2(O)[C@H]1OC(=O)C(C)C1CCCCC1)[C@H]1[C@@H](C[C@H]3C)C1(C)C (stereo partly shown) [Compound 114, Ingenol 3-(2-cyclohexylpropanoate)]
- EC50 (HeLa cells; HeLa): 150000 to 350000 nM
- EC50 [1]: < 20 nM
- EC50 [2, 3]: < 20 nM

Structure (SMILES): CO/N=C(\C(=O)O[C@H]1C(C)=C[C@]23C(=O)[C@@H](C=C(CO)[C@@H](O)[C@]12O)[C@H]1[C@@H](C[C@H]3C)C1(C)C)c1ccccc1 [Compound 115, Ingenol 3-((2Z)-2-methoxyimino-2-phenyl-acetate)]
- EC50 (HeLa cells; HeLa): < 150000 nM
- EC50 [1]: 20 to 100 nM
- EC50 [2, 3]: < 20 nM

Structure (SMILES): CO/N=C(/C(=O)O[C@H]1C(C)=C[C@]23C(=O)[C@@H](C=C(CO)[C@@H](O)[C@]12O)[C@H]1[C@@H](C[C@H]3C)C1(C)C)c1ccccc1 [Compound 116, Ingenol 3-((2E)-2-methoxyimino-2-phenyl-acetate)]
- EC50 [1]: 20 to 100 nM
- EC50 [2, 3]: 20 to 100 nM

Structure (SMILES): CC1=C[C@]23C(=O)[C@@H](C=C(CO)[C@@H](O)[C@]2(O)[C@H]1OC(=O)/C(C)=C\c1ccc(C)cc1)[C@H]1[C@@H](C[C@H]3C)C1(C)C [Compound 117, Ingenol 3-((Z)-2-methyl-3-(p-tolyl)prop-2-enoate)]
- EC50 (HeLa cells; HeLa): < 150000 nM
- EC50 [1]: < 20 nM
- EC50 [2, 3]: < 20 nM

Structure (SMILES): C/C=C(/C(=O)O[C@H]1C(C)=C[C@]23C(=O)[C@@H](C=C(CO)[C@@H](O)[C@]12O)[C@H]1[C@@H](C[C@H]3C)C1(C)C)c1ccccc1 [Compound 118, Ingenol 3-((E)-2-phenylbut-2-enoate)]
- EC50 (HeLa cells; HeLa): < 150000 nM
- EC50 [1]: < 20 nM
- EC50 [2, 3]: < 20 nM

Structure (SMILES): CC1=C[C@]23C(=O)[C@@H](C=C(CO)[C@@H](O)[C@]2(O)[C@H]1OC(=O)C(c1ccccc1)c1ccccc1)[C@H]1[C@@H](C[C@H]3C)C1(C)C [Compound 119, Ingenol 3-(2,2-diphenylacetate)]
- EC50 (HeLa cells; HeLa): < 150000 nM
- EC50 [1]: < 20 nM
- EC50 [2, 3]: < 20 nM

Structure (SMILES): CC1=C[C@]23C(=O)[C@@H](C=C(CO)[C@@H](O)[C@]2(O)[C@H]1OC(=O)C(C#N)=C1CCCCC1)[C@H]1[C@@H](C[C@H]3C)C1(C)C [Compound 120, Ingenol 3-(2-cyano-2-cyclohexylidene-acetate)]
- EC50 [1]: < 20 nM
- EC50 [2, 3]: > 100 nM
